Results on one substance are retold here after US20090131354A1, “miR-126 REGULATED GENES AND PATHWAYS AS TARGETS FOR THERAPEUTIC INTERVENTION” (priority 2007, published 2009).

For data set [1], the system named is A549 lung cancer cells. The experiment in a line: Dose-dependent inhibition of proliferation (Alamar Blue), A549. In kind it is cell-based, human. The conditions noted are these: for % proliferation: normalized to mock-transfected cells (0 pM = 100%). As to the method:
Lipid-based reverse transfections were carried out in triplicate according to a published protocol (Ovcharenko et al., 2005) and the following parameters: Cells (5,000-12,000 per 96 well), 0.1-0.2 μl Lipofectamine™ 2000 (cat. no. 11668-019, Invitrogen Corp., Carlsbad, Calif., USA) in 20 μl OptiMEM (Invitrogen), 30 nM final concentration of miRNA in 100 μl. Electroporation of H226 cells was carried out using the BioRad Gene Pulser Xcell™ instrument (BioRad Laboratories Inc., Hercules, Calif., USA) with the following settings: 5×10^6 cells with 5 μg miRNA in 200 μl OptiMEM (1.6 μM miRNA), square wave pulse at 250 V for 5 ms. Electroporated H226 cells were seeded at 7,000 cells per 96-well in a total volume of 100 μl. All cells except for Calu-3 cells were harvested 72 hours post transfection or electroporation for assessment of cellular proliferation. Calu-3 cells were harvested 10 days post transfection. Proliferation assays were performed using Alamar Blue (Invitrogen) following the manufacturer's instructions. As a control for inhibition of cellular proliferation, siRNA against the motor protein kinesin 11, also known as Eg5, was used. Eg5 is essential for cellular survival of most eukaryotic cells and a lack thereof leads to reduced cell proliferation and cell death (Weil et al., 2002). siEg5 was used in lipid-based transfection following the same experimental parameters that apply to miRNA. The inventors also used a DNA topoisomerase II inhibitor, etoposide, at a final concentration of 10 μM and 50 μM as an internal standard for the potency of miRNAs. Etoposide is an FDA-approved DNA topoisomerase II inhibitor in the treatment of lung cancer. […] Percent (%) proliferation values from the Alamar Blue assay were normalized to values from cells treated with negative control miRNA. Percent proliferation of hsa-miR-126 treated cells relative to cells treated with negative control miRNA (100%) is shown in Table 6 and in FIG. 1.
The inventors determined sensitivity and specificity of hsa-miR-126 by administering hsa-miR-126 or negative control miRNA at increasing concentrations, ranging from 0 pM to 3,000 pM (Table 7, FIG. 2). Delivery of miRNA and assessment of cellular proliferation of A549 and H460 cells were done as described above. Proliferation values from the Alamar Blue assay were normalized to values obtained from mock-transfected cells (0 pM=100% proliferation). Increasing amounts of negative control miRNA (NC) had no effect on cellular proliferation of A549 or H460 cells (Table 7 and FIG. 2). In contrast, the growth-inhibitory phenotype of hsa-miR-126 is dose-dependent and correlates with increasing amounts of hsa-miR-126 (Table 7 and FIG. 2). Hsa-miR-126 induces a specific therapeutic response at concentrations as low as 300 pM.
A general note: Resazurin is reduced to fluorescent resorufin, in cell work by metabolically active cells.

In data set [2] the test system is MCF12A, BT549, TE353SK, 22Rv1, A549, CRL-5826, HTB-57 cells. The following applies: cited from earlier work.
Data set [3] concerns HCC2935 lung cancer cells. The experiment in a line: Alamar Blue proliferation assay, HCC2935. The following applies: HCC2935, 30 nM, 72 h, relative to NC miRNA (100%). In kind it is cell-based, human. The source says:
The inventors assessed the therapeutic effect of hsa-miR-126 for lung cancer by using 11 individual lung cancer cell lines. To measure cellular proliferation of lung cancer cells, the following non-small cell lung cancer (NSCLC) cells were used: cells derived from lung adenocarcinoma (A549, H1299, H522, H838, Calu-3, HCC827, HCC2935), cells derived from lung squamous cell carcinoma (H520, H226), cells derived from lung bronchioalveolar carcinoma (H1650), and cells derived from lung large cell carcinoma (H460). Synthetic hsa-miR-126 (Pre-miR™-hsa-miR-126, Ambion cat. no. AM17100) or negative control (NC) miRNA (Pre-miR™ microRNA Precursor Molecule-Negative Control #2; Ambion cat. no. AM17111) was delivered via lipid-based transfection into A549, H1299, H522, H838, Calu-3, HCC827, HCC2935, H520, H1650, and H460 cells, and via electroporation into H226 cells.
Lipid-based reverse transfections were carried out in triplicate according to a published protocol (Ovcharenko et al., 2005) and the following parameters: Cells (5,000-12,000 per 96 well), 0.1-0.2 μl Lipofectamine™ 2000 (cat. no. 11668-019, Invitrogen Corp., Carlsbad, Calif., USA) in 20 μl OptiMEM (Invitrogen), 30 nM final concentration of miRNA in 100 μl. […]

In data set [4] the test system is A549 cells. Briefly: Ingenuity Pathways Analysis of affected cellular pathways. Further details: species or system human. As to the method:
The mis-regulation of gene expression by hsa-miR-126 (Table 1) affects many cellular pathways that represent potential therapeutic targets for the control of cancer and other diseases and disorders. The inventors determined the identity and nature of the cellular genetic pathways affected by the regulatory cascade induced by hsa-miR-126 expression. Cellular pathway analyses were performed using Ingenuity Pathways Analysis (Version 4.0, Ingenuity® Systems, Redwood City, Calif.). Alteration of a given pathway was determined by Fisher's Exact test (Fisher, 1922).

Some results are limits rather than exact numbers.

In the case of “hsa-miR-126 (UCGUACCGUGAGUAAUAAUGC; synthetic pre-miR form, further chemistry not given here) [Synthetic hsa-miR-126 (Pre-miR™-hsa-miR-126, Ambion cat. no. AM17100)]”, the “growth-inhibitory phenotype, dose dependence” value in data set [1] (A549 and H460, 0 pM to 3,000 pM) is listed as “dose-dependent”. Moreover, in data set [1] (A549 and H460, 0 pM to 3,000 pM tested), the “concentration inducing a specific therapeutic response” value is on record as no less than 300 pM. The “% proliferation” value in data set [1] (A549 cells, 3 pM miRNA) turned out to be 95.40%; in data set [1] (A549 cells, 30 pM miRNA), 92.87%; in data set [1] (A549 cells, 300 pM miRNA) it was 80.93%; in data set [1] (A549 cells, 3,000 pM miRNA) it was 74.50%; in data set [3], 66.89%. Further, the effect on proliferation entry in data set [2] is “decreasing proliferation”. Moreover, the “Number of Genes” value was determined as 23 in data set [4] (pathway: Cancer, Cellular Movement, Tumor Morphology); 15 in data set [4] (pathway: Carbohydrate Metabolism, Connective Tissue Disorders, Inflammatory Disease); 1 in data set [4] (pathway: Cell Cycle, Connective Tissue Development and Function, Immune Response); 15 in data set [4] (pathway: Cell Cycle, Lipid Metabolism, Molecular Transport); 1 in data set [4] (pathway: Cell Death, Cell-To-Cell Signaling and Interaction, Cellular Assembly and Organization); 15 in data set [4] (pathway: Cell Morphology, Cellular Assembly and Organization, Cellular Development). The “Number of Genes” value in data set [4] (pathway: Cell Signaling, Molecular Transport, Neurological Disease) is recorded as 1; in data set [4] (pathway: Cell-To-Cell Signaling and Interaction, Immune Response, Immune and Lymphatic System Development and Function) it was 13; in data set [4] (pathway: Cellular Assembly and Organization, Cancer, Skeletal and Muscular Disorders), 16; in data set [4] (pathway: Cellular Function and Maintenance, Cellular Assembly and Organization, Cell Cycle), 11; in data set [4] (pathway: Cellular Growth and Proliferation, Skeletal and Muscular System Development and Function, Cancer), 16; in data set [4] (pathway: Cellular Movement, Cellular Assembly and Organization, Drug Metabolism), 16. Also, the “Number of Genes” value in data set [4] (pathway: Developmental Disorder, Endocrine System Disorders, Lipid Metabolism) worked out at 1; in data set [4] (pathway: Immune Response, Cellular Assembly and Organization, Gene Expression), 1; in data set [4] (pathway: Molecular Transport, Protein Trafficking, Cell-To-Cell Signaling and Interaction), 1.
